The values that follow come from patent publication US20140135310A1, “SULPHONAMIDE DERIVATIVES OF ALICYCLIC AMINES FOR THE TREATMENT OF CENTRAL NERVOUS SYSTEM DISEASES” (Adamed Sp. z o.o., priority 2011, published 2014).

The target in test [1] is dopaminergic receptors D2 (Homo sapiens, UniProt P14416). Put plainly: Radioligand binding assay, dopaminergic D2 receptors. The settings on record: binding assay, test compound 1×10^−6 M. A digest of the protocol:
(§1)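 Competition radioligand binding at human D2, D3 and D4.4 receptors, detected by scintillation counting; nonspecific binding defined with excess unlabelled ligand. Results as percent inhibition of control specific binding; IC50 by Hill-equation nonlinear regression; Ki via Cheng-Prusoff, with radioligand KD from Scatchard plot.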

Test [2] concerns the target dopaminergic receptors D3 (Homo sapiens, UniProt P35462). Nature of the test: Radioligand binding assay, dopaminergic D3 receptors. To be noted: test compound 1×10^−6 M. An outline of the steps: as §1
Test [3] deals with T1, 5-HT1A receptor (rat hippocampus) (Rattus norvegicus, UniProt P19327).
T1 construct: hippocampus; from tissue; host or cells: rat hippocampus
T1 sequence (P19327 1-422): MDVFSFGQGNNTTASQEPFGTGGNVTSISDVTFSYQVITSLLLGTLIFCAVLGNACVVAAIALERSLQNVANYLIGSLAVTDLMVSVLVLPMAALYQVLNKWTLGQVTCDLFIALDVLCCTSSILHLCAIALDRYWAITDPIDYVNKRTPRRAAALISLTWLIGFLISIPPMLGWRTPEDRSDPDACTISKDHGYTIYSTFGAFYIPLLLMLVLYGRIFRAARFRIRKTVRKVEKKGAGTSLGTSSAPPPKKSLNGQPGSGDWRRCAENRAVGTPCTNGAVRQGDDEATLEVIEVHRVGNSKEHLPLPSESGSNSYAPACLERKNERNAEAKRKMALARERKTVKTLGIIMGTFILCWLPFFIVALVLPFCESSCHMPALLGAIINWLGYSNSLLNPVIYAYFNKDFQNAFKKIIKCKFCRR
Nature of the test: Radioligand binding assay, serotoninergic 5-HT1A receptors. The settings on record: binding assay result in %, Table 5a.

For test [4], the target named is T2, 5-HT2A receptor (Homo sapiens, UniProt P28223).
T2 construct: purchased PerkinElmer
Nature of the test: Radioligand binding assay, serotoninergic 5-HT2A receptors. To be noted: binding assay result in %, Table 5a. A digest of the protocol: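 Radioligand competition binding with scintillation counting; nonspecific binding defined by excess unlabelled ligand. Data as percent inhibition of control specific binding. IC50 by Hill-equation fit of competition curves; Ki by Cheng-Prusoff, with radioligand Kd from Scatchard plot.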

The target in test [5] is T3, 5-HT6 receptor (Homo sapiens, UniProt P50406).
T3 construct: purchased PerkinElmer
Put plainly: Radioligand binding assay, serotoninergic 5-HT6 receptors. To be noted: binding assay result in %, Table 5a. An outline of the steps: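 Values are Ki from Cheng–Prusoff, taking IC50 from Hill nonlinear regression of competition curves and KD from a Scatchard plot. Specific binding was total minus binding with excess unlabelled ligand. Radioligand displacement was detected by scintillation counting, and data were also reported as percent of control specific binding.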

In test [6] the target is T4, 5-HT7 receptor (Homo sapiens, UniProt P34969).
T4 construct: purchased PerkinElmer
Nature of the test: Radioligand binding assay, serotoninergic 5-HT7 receptors. To be noted: binding assay result in %, Table 5a. An outline of the steps:
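Competition binding at human 5-HT7 receptors with a radioligand, detected by scintillation counting; non-specific binding was defined with excess unlabelled ligand. IC50 came from Hill-equation fits of competition curves, and Ki from Cheng–Prusoff using radioligand concentration and Scatchard-derived KD.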

Test [7] relates to α1 adrenergic receptors (rat cerebral cortex). Put plainly: Radioligand binding assay, adrenergic α1 receptors. The settings on record: test compound 1×10^−6 M. A digest of the protocol:
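Values derive from radioligand displacement, with non-specific binding defined by excess cold ligand and detection by scintillation. Hill-fit IC50s were converted to Ki via Cheng-Prusoff using Scatchard-derived Kd; percent inhibition of control specific binding also reported.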

Test [8] has as its target T5, serotonin transporter (SERT) (Homo sapiens, UniProt P31645).
T5 construct: expressed in transfected cells; host or cells: CHO cells
Put plainly: Radioligand binding assay, serotonin transporter (SERT). To be noted: binding assay, test compound 1×10^−6 M. An outline of the steps:
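Radioligand competition binding with scintillation detection; specific binding is total minus binding under excess unlabelled ligand. Reported as % of control specific binding or % inhibition; IC50 from Hill-equation non-linear regression of competition curves, and Ki via Cheng-Prusoff using radioligand concentration and Scatchard-derived KD.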

Broadly, the inhibition is the relative decrease from the control value, in per cent.

T4 sequence (P34969 whole entry): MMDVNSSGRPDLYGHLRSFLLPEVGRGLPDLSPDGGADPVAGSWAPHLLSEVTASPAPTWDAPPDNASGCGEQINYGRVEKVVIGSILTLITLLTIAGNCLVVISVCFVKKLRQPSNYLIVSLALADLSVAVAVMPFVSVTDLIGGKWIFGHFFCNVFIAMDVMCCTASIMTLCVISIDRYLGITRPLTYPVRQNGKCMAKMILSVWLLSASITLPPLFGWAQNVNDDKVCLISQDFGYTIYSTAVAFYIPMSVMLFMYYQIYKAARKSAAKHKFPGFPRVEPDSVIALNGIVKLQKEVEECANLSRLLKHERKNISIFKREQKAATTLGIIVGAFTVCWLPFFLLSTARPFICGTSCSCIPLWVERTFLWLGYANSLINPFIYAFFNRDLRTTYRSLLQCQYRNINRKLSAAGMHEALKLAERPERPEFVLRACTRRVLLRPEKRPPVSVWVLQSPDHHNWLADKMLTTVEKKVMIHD
T3 sequence (P50406 whole entry): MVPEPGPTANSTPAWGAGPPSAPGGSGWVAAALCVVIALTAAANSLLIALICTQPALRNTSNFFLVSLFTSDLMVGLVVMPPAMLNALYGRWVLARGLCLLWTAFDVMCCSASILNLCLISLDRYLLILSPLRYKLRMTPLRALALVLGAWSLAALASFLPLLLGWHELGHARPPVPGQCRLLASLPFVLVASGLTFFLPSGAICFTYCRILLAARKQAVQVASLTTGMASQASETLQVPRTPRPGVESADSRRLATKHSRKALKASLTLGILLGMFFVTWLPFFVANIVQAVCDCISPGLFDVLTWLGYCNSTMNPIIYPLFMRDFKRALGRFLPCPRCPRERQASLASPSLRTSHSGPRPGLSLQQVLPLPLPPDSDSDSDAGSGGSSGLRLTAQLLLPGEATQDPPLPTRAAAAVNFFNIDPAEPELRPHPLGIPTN
T2 sequence (P28223 whole entry): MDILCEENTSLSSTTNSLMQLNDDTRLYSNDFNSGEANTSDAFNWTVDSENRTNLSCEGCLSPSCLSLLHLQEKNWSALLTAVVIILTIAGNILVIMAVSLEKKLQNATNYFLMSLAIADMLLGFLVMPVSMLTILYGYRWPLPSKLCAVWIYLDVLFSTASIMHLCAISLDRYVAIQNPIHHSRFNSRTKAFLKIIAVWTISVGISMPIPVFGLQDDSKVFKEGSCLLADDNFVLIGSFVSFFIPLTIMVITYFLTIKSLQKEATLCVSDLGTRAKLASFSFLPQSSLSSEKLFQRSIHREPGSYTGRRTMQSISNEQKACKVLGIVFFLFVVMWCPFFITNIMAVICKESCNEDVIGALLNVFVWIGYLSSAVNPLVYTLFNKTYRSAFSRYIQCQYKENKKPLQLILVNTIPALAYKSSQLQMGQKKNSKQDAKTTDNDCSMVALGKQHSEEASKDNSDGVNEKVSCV
Chain of dopaminergic receptors D2 (P14416 whole entry): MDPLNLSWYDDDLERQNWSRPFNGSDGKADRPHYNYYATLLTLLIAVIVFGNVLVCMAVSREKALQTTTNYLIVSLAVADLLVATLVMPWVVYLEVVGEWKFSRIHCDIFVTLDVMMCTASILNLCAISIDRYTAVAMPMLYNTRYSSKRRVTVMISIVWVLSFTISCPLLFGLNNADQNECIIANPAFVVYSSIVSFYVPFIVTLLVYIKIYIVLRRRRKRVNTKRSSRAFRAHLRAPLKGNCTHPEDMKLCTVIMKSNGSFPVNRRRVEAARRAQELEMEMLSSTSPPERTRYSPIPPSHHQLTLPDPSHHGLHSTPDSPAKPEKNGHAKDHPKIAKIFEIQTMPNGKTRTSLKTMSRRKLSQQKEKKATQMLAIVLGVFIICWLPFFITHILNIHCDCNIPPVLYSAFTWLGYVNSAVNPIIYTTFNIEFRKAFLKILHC
T5 sequence (P31645 whole entry): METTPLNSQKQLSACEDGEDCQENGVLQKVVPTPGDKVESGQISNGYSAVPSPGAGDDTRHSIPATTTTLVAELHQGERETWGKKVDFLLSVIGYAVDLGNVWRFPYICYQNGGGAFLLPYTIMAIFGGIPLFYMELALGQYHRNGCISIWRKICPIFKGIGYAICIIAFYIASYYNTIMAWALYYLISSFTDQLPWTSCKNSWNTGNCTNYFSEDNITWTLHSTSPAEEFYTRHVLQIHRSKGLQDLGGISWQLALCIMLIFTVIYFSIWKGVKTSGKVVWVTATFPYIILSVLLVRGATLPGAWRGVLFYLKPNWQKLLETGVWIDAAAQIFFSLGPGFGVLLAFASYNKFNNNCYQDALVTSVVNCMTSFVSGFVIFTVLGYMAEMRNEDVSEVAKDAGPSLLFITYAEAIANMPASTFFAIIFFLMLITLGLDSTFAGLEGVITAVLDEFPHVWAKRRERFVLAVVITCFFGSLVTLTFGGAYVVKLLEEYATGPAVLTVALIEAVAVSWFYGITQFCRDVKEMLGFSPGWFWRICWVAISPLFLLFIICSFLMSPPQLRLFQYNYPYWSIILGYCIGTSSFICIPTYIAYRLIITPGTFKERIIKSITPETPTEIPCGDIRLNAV
Chain of dopaminergic receptors D3 (P35462 whole entry): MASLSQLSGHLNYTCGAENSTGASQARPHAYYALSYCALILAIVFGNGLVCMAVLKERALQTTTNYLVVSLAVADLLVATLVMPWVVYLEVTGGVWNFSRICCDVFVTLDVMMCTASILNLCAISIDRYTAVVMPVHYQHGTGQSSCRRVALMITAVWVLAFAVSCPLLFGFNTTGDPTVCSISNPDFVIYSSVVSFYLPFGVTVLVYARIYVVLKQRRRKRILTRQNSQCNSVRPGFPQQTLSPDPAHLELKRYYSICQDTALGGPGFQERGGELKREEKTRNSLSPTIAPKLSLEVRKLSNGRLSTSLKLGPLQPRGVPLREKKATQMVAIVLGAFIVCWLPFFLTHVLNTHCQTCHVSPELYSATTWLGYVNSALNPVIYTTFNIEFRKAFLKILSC

Take `O=S(=O)(NCC1CCN(CCOc2cccc3c2OCCO3)C1)c1ccc(Cl)cc1` (centres unmarked) [Compound 289, 4-Chloro-N-[[1-[2-(2,3-dihydro-1,4-benzodioxin-5-yloxy)ethyl]pyrrolidin-3-yl]methyl]benzenesulphonamide]: the inhibition at 1 µM in test [1] was -19%; in test [2], 41%; in test [3], 99%; in test [4] it was 61%; in test [5], -1%; in test [6], 81%. In test [8], the inhibition at 1 µM stood at 53%. In test [7], the “α1 [%]” value worked out at 46%.
Regarding `Cc1ccc(S(=O)(=O)NCC2CCN(CCOc3cccc4c3OCCO4)C2)cc1` (centres unmarked) [Compound 291, N-[[1-[2-(2,3-Dihydro-1,4-benzodioxin-5-yloxy)ethyl]pyrrolidin-3-yl]methyl]-4-methyl-benzenesulphonamide], the inhibition at 1 µM in test [1] was 29%; in test [2], 33%; in test [3], 94%; in test [4] it was 63%; in test [5], 19%; in test [6], 80%. In addition, the inhibition at 1 µM in test [8] is 66%. Moreover, the “α1 [%]” value in test [7] is reported as 66%.
Regarding `O=S(=O)(NCC1CCN(CCOc2cccc3c2OCCO3)C1)c1ccc(Cl)c(Cl)c1` (centres unmarked) [Compound 301, 3,4-Dichloro-N-[[1-[2-(2,3-dihydro-1,4-benzodioxin-5-yloxy)ethyl]-pyrrolidin-3-yl]methyl]benzenesulphonamide], the inhibition at 1 µM in test [1] is -22%; in test [2], 34%; in test [3] it was 96%; in test [4] it was 81%; in test [5] it was 61%; in test [6], 98%. The inhibition at 1 µM in test [8] turned out to be 38%. Also, in test [7], the “α1 [%]” value was 46%.
As to `O=S(=O)(NCC1CCN(CCOc2cccc3c2OCCO3)C1)c1cccs1` (centres unmarked) [Compound 302, N-[[1-[2-(2,3-Dihydro-1,4-benzodioxin-5-yloxy)ethyl]pyrrolidin-3-yl]-methyl]thiophene-2-sulphonamide], the inhibition at 1 µM was 34% in test [1]; 37% in test [2]; 89% in test [3]; 52% in test [4]; 35% in test [5]; 105% in test [6]. Also, the inhibition at 1 µM in test [8] came to 37%. In addition, the “α1 [%]” value in test [7] was determined as 63%.
As for `O=S(=O)(NCC1CCN(CCOc2cccc3c2OCCO3)C1)c1ccc(Cl)s1` (centres unmarked) [Compound 316, 5-Chloro-N-[[1-[2-(2,3-dihydro-1,4-benzodioxin-5-yloxy)ethyl]pyrrolidin-3-yl]-methyl]thiophene-2-sulphonamide], the inhibition at 1 µM was -2% in test [1]; 36% in test [2]; 74% in test [3]; 82% in test [4]; 36% in test [5]; 87% in test [6]. Further, in test [8], the inhibition at 1 µM was 8%. The “α1 [%]” value in test [7] was determined as 66%.
`O=S(=O)(NC1CCN(CCCc2noc3cc(F)ccc23)CC1)c1ccc2cc(Cl)ccc2c1` [Compound 325, 6-Chloro-N-[1-[3-(6-fluoro-1,2-benzoxazol-3-yl)propyl]-4-piperidyl]naphthalene-2-sulphonamide]: the inhibition at 1 µM in test [1] was found to be 91%; in test [2], 59%; in test [3], 80%; in test [4], 92%; in test [5], 72%; in test [6], 89%. The inhibition at 1 µM in test [8] worked out at 21%. Moreover, the “α1 [%]” value in test [7] was 76%.
As to `Cc1c(S(=O)(=O)NC2CCN(CCCc3noc4cc(F)ccc34)CC2)sc2ccc(Cl)cc12` [Compound 326, 5-Chloro-N-[1-[3-(6-fluoro-1,2-benzoxazol-3-yl)propyl]-4-piperidyl]-3-methyl-benzothiophene-2-sulphonamide], the inhibition at 1 µM in test [1] was 86%; in test [2] it was 61%; in test [3], -1%; in test [4], 97%; in test [5] it was 83%; in test [6], 91%. Moreover, the inhibition at 1 µM in test [8] is 10%. In addition, in test [7], the “α1 [%]” value amounted to 70%.
With `O=S(=O)(NC1CCN(CCCc2noc3cc(F)ccc23)CC1)c1ccc(-c2ccccc2)cc1` [Compound 327, N-[1-[3-(6-Fluoro-1,2-benzoxazol-3-yl)propyl]-4-piperidyl]-4-phenylbenzenesulphonamide], the inhibition at 1 µM in test [1] was found to be 79%; in test [2] it was 56%; in test [3], 20%; in test [4], 94%; in test [5], 68%; in test [6], 86%. The inhibition at 1 µM in test [8] turned out to be 33%. Besides, the “α1 [%]” value in test [7] was found to be 81%.
For “N-[1-[3-(6-Fluoro-1,2-benzoxazol-3-yl)propyl]pyrrolidin-3-yl]-1,3-benzothiazole-4-sulphonamide [Compound 31]”, the “D2 [%]” value in test [1] worked out at 87%. In addition, the “D3 [%]” value in test [2] was 27%. Also, in test [3], the “5-HT1A [%]” value was 58%. Moreover, in test [4], the “5-HT2A [%]” value was found to be 84%. Also, the “5-HT6 [%]” value in test [5] worked out at 76%. Further, the “5-HT7 [%]” value in test [6] worked out at 89%. Moreover, the “α1 [%]” value in test [7] was 100%. The “SERT [%]” value in test [8] is 36%.
Take “N-[1-[3-(6-Fluoro-1,2-benzoxazol-3-yl)propyl]pyrrolidin-3-yl]benzene-sulphonamide [Compound 6]”: the “D2 [%]” value in test [1] amounted to 70%. The “D3 [%]” value in test [2] was found to be 8%. For the same molecule, in test [3], the “5-HT1A [%]” value was determined as 14%. Also, the “5-HT2A [%]” value in test [4] came to 77%. Besides, the “5-HT6 [%]” value in test [5] was found to be 44%. Further, in test [6], the “5-HT7 [%]” value amounted to 83%. Besides, the “α1 [%]” value in test [7] is recorded as 98%. Further, the “SERT [%]” value in test [8] was determined as 18%.
